Source: patent US11000033B2, “Ketone or oxime compound, and herbicide” (NISSAN CHEMICAL CORPORATION, priority 2014, dated 2021)

Columns and labels:
Format in all cases: in vivo
[1] = tested on: Echinochloa oryzacola Vasing.; assay: Test Example 1: herbicidal activity, application before weed generation in submerged conditions (symbol A); settings: application herbicide amount 320 g/ha
Excerpt: (§1) Herbicidal Activity Test by Application Before Weed Generation in Submerged Conditions
(§2) After alluvial soil was placed into 1/10000 are of Wagner pot, water was poured and mixed to form a submerged condition having a water depth of 4 cm. Seeds of Echinochloa oryzacola Vasing., Scirpus juncoides, and Monochoria vaginalis were sowed in a mixed manner in the above pot and thereafter 2.5 leaf stage rice plant seedlings were transplanted thereto. On the day of sowing seeds, the emulsion agent of the compound of the present invention prepared in accordance with Formulation Example 2 was diluted with water so as to be a predetermined herbicide amount and the diluted emulsion agent was applied to the surface of the water. The pot was placed in a greenhouse of 25° C. to 30° C. to grow plant. 3 weeks later from the herbicide application, the effect to each plant was investigated in accordance with the following criteria.
(§3) 5 Herbicidal ratio of 90% or more (almost completely withered)
(§4) 4 Herbicidal ratio of 70% or higher and lower than 90%
(§5) 3 Herbicidal ratio of 40% or higher and lower than 70%
(§6) 2 Herbicidal ratio of 20% or higher and lower than 40%
(§7) 1 Herbicidal ratio of 5% or higher and lower than 20%
(§8) 0 Herbicidal ratio of 5% or lower (almost no effect)

[2] = tested on: directly sowed rice plant; assay: Test Example 3: effect on crop by foliage application, Wagner pot (symbol b); settings: application herbicide amount 320 g/ha
Experimental: (§9) Herbicidal Effect Test by Foliage Application
After alluvial soil was placed into 1/10000 are of Wagner pot, water was poured and mixed to form a submerged condition having a water depth of 0.1 cm to 0.5 cm. Seeds of Echinochloa crus-galli var. crus-galli, Leptochloa chinensis, Cyperus difformis, and rice were sowed and the pot was placed in the greenhouse of 25° C. to 30° C. to grow the plants.

Cyperus difformis = assay: Test Example 3: herbicidal effect by foliage application, Wagner pot (symbol E); settings: application herbicide amount 320 g/ha
Experimental: as §9
(§10) After alluvial soil was placed into 1/10000 are of Wagner pot, water was poured and mixed to form a submerged condition having a water depth of 0.1 cm to 0.5 cm. Seeds of Echinochloa crus-galli var. crus-galli, Leptochloa chinensis, Cyperus difformis, and rice were sowed and the pot was placed in the greenhouse of 25° C. to 30° C. to grow the plants. After the plants were grown for 14 days, the emulsion agent of the compound of the present invention prepared in accordance with Formulation Example 2 was diluted with water so as to be a predetermined herbicide amount and the diluted emulsion agent was uniformly applied to a foliage part with a small-size spray. 3 weeks later from the herbicide application, the effect to each plant was investigated in accordance with the criteria of Test Example 1.

Scirpus juncoides [3] = assay: Test Example 1: herbicidal activity, application before weed generation in submerged conditions (symbol B); settings: application herbicide amount 320 g/ha
Excerpt: as §1, §2, §3, §4, §5, §6, §7, §8

Leptochloa chinensis = assay: Test Example 3: herbicidal effect by foliage application, Wagner pot (symbol D); settings: application herbicide amount 320 g/ha
Experimental: as §9, §10

[4] = tested on: Echinochloa crus-galli var. crus-galli; assay: Test Example 3: herbicidal effect by foliage application, Wagner pot (symbol H); settings: application herbicide amount 320 g/ha
Experimental: as §9, §10

Scirpus juncoides [5] = assay: Test Example 2: herbicidal activity, application during weed generation in submerged conditions (symbol B); settings: Table 23; application herbicide amount 320 g/ha; grade 0-5 by criteria of Test Example 1
Experimental: (§11) Herbicidal Activity Test by Application During Weed Generation in Submerged Conditions
as §2, with “the pot was placed in the greenhouse of 25° C. to 30° C. to grow the plants. When Echinochloa oryzacola Vasing., Scirpus juncoides, and Monochoria vaginalis were grown to one” for “thereafter 2.5”, “to two leaf stage,” for “rice plant seedlings were transplanted thereto. On the day of sowing seeds,”, “water.” for “water. The pot was placed in a greenhouse of 25° C. to 30° C. to grow plant.”, “criteria of Test Example 1.” for “following criteria.”

Monochoria vaginalis = assay: Test Example 2: herbicidal activity, application during weed generation in submerged conditions (symbol C); settings: Table 23; application herbicide amount 320 g/ha; grade 0-5 by criteria of Test Example 1
Experimental: as §11
as §2, with “the pot was placed in the greenhouse of 25° C. to 30° C. to grow the plants. When Echinochloa oryzacola Vasing., Scirpus juncoides, and Monochoria vaginalis were grown to one” for “thereafter 2.5”, “to two leaf stage,” for “rice plant seedlings were transplanted thereto. On the day of sowing seeds,”, “water.” for “water. The pot was placed in a greenhouse of 25° C. to 30° C. to grow plant.”, “criteria of Test Example 1.” for “following criteria.”

[6] = tested on: Echinochloa oryzacola Vasing.; assay: Test Example 2: herbicidal activity, application during weed generation in submerged conditions (symbol A); settings: Table 23; application herbicide amount 320 g/ha; grade 0-5 by criteria of Test Example 1
Experimental: as §11
as §2, with “the pot was placed in the greenhouse of 25° C. to 30° C. to grow the plants. When Echinochloa oryzacola Vasing., Scirpus juncoides, and Monochoria vaginalis were grown to one” for “thereafter 2.5”, “to two leaf stage,” for “rice plant seedlings were transplanted thereto. On the day of sowing seeds,”, “water.” for “water. The pot was placed in a greenhouse of 25° C. to 30° C. to grow plant.”, “criteria of Test Example 1.” for “following criteria.”

transplanted rice plant = assay: Test Example 1: effect on crop, application before weed generation in submerged conditions (symbol a); settings: application herbicide amount 320 g/ha
Experimental: as §1
as §2, with “On the day of sowing seeds, the emulsion agent of the compound of the present invention prepared in accordance with Formulation Example 2 was diluted with water so as to be a predetermined herbicide amount and the diluted emulsion agent was applied to the surface of the water.” left out
as §3, §4, §5, §6, §7, §8

## CON=C(C)CC1CC(O)=C(c2c(C)cc(SC)cc2C)C1=O (stereo not shown) [6-024]
[1]
  Herbicidal effect grade, A: Echinochloa oryzacola Vasing.: 3 (Herbicidal ratio of 40% or higher and lower than 70%)
[2]
  effect on crop b (directly sowed rice plant), grade 0-5: 3 (Herbicidal ratio of 40% or higher and lower than 70%)
Cyperus difformis
  herbicidal effect on E, grade 0-5: 3 (Herbicidal ratio of 40% or higher and lower than 70%)
Scirpus juncoides [3]
  Herbicidal effect grade, B: Scirpus juncoides: 2 (Herbicidal ratio of 20% or higher and lower than 40%)
Leptochloa chinensis
  herbicidal effect on D (Leptochloa chinensis), grade 0-5: 2 (Herbicidal ratio of 20% or higher and lower than 40%)
[4]
  herbicidal effect on H (Echinochloa crus-galli var. crus-galli), grade 0-5: 3 (Herbicidal ratio of 40% or higher and lower than 70%)
Scirpus juncoides [5]
  Herbicidal effect grade, B: Scirpus juncoides: 0 (Herbicidal ratio of 5% or lower (almost no effect))
Monochoria vaginalis
  Herbicidal effect grade, C: Monochoria vaginalis: 0 (Herbicidal ratio of 5% or lower (almost no effect))
[6]
  Herbicidal effect grade, A: Echinochloa oryzacola Vasing.: 1 (Herbicidal ratio of 5% or higher and lower than 20%)
Transplanted rice plant
  Effect grade on crop, a: transplanted rice plant: 3 (Herbicidal ratio of 40% or higher and lower than 70%)
